The record followed here is ChEMBL document CHEMBL1156212, “Curcumin derivatives inhibit testicular 17beta-hydroxysteroid dehydrogenase 3” (Bioorg Med Chem Lett, 2010).

The structures appear in SMILES notation. Active and inactive are the calls of the source. The rule behind the calls is not given here.

For assay [1], the target named is T1, 17-beta-hydroxysteroid dehydrogenase type 3 (Homo sapiens, UniProt P37058).
T1 sequence (P37058 whole entry): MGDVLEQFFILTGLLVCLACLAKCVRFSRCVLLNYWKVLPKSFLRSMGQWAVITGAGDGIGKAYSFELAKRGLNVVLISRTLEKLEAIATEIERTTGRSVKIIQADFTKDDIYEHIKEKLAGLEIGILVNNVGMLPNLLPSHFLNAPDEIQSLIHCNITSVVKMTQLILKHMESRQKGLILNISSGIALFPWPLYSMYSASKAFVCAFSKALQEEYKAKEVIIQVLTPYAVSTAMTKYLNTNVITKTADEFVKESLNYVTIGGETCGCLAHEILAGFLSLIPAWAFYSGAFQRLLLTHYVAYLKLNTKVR
Put plainly: Inhibition of 17beta-HSD3 in human testis microsomes.

The target of assay [2] is T2, 17-beta-hydroxysteroid dehydrogenase type 3 (Rattus norvegicus) (UniProt O54939).
T2 sequence (whole entry): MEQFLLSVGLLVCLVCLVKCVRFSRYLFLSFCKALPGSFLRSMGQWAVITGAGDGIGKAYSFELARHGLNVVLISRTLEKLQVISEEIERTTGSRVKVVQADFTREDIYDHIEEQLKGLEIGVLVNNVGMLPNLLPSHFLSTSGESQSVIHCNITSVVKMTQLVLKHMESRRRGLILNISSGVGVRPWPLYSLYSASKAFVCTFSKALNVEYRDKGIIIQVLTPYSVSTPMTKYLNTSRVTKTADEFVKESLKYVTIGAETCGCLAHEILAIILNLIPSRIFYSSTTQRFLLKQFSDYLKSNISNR
Briefly: Inhibition of 17beta-HSD3 in Sprague-Dawley rat laydig cells at 100 uM.

Assay [3] deals with T2, 17-beta-hydroxysteroid dehydrogenase type 3 (Rattus norvegicus). Briefly: Inhibition of 17beta-HSD3 in Sprague-Dawley rat testis microsomes at 100 uM.
In assay [4] the target is T3, 17-beta-hydroxysteroid dehydrogenase type 3 (Homo sapiens) (UniProt P37058).
T3 sequence (whole entry): T1 sequence (P37058 whole entry)
Briefly: Inhibition of 17beta-HSD3 in human testis microsomes at 100 uM.

Assay [5] addresses T4, 17-beta-hydroxysteroid dehydrogenase type 3 (Rattus norvegicus, UniProt O54939).
T4 sequence (O54939 whole entry): T2 sequence (whole entry)
Put plainly: Inhibition of 17beta-HSD3 in Sprague-Dawley rat laydig cells.

Assay [6] deals with T4, 17-beta-hydroxysteroid dehydrogenase type 3. Briefly: Inhibition of 17beta-HSD3 in Sprague-Dawley rat testis microsomes.
For assay [7], the target named is T1, 17-beta-hydroxysteroid dehydrogenase type 3. Briefly: Inhibition of 17beta-HSD3.
Assay [8] can be described thus: Inhibition of LH-stimulated testosterone production in Sprague-Dawley rat leydig cells at 10 uM after 18 hrs by tritium based radio immuno assay relative to control. The format is functional. The following applies: read-out: INH.
The target of assay [9] is T2, 17-beta-hydroxysteroid dehydrogenase type 3 (Rattus norvegicus). Put plainly: Uncompetitive inhibition of 17beta-HSD3 in Sprague-Dawley rat testis microsomes at 1 to 10 uM by Lineweaver-Burke plot analysis. Particulars: Microsome.
Assay [10] deals with T3, 17-beta-hydroxysteroid dehydrogenase type 3 (Homo sapiens). The following applies: Testis, Microsomes, 1 to 10 uM.
Description: Uncompetitive inhibition of 17beta-HSD3 in human testis microsomes at 1 to 10 uM by Lineweaver-Burke plot analysis

By IC50 is commonly meant the midpoint of a concentration-inhibition curve. A low value points to greater potency in that assay. The molecule `O=C1C=CC(=O)C(c2ccc(-c3ccccc3)cc2)=C1` registered a half-maximal inhibitory concentration (IC50) in assay [1] of 2700 nM.
Take `CCOc1ccc(/C=C2\CC/C(=C\c3ccc(OCC)cc3)C2=O)cc1`: in [2], the inhibition was 14%. Further, the inhibition result in assay [3] and in assay [4] was “inactive” in each case.
In the case of `CCOc1ccc(/C=C/C(=O)/C=C/c2ccc(OCC)cc2)cc1`, inhibition in assay [5] was half-maximal at 70 nM (IC50). The inhibition in [3] and in [4] was 16% each time.
Consider `CN(C)c1ccc(/C=C/C(=O)/C=C/c2ccc(N(C)C)cc2)cc1`, for which the inhibition entry in assay [2] is “inactive”. Besides, the inhibition in assay [3] came out at 15%. This molecule also yielded an IC50 in assay [1] of 2400 nM.
In the case of `O=C1/C(=C/c2ccc(O)cc2)CCC/C1=C\c1ccc(O)cc1`, the inhibition in [2] turned out to be 13%; in assay [3], 34%; in assay [4] it was 38%.
`CCOc1ccc(/C=C2\CCC/C(=C\c3ccc(OCC)cc3)C2=O)cc1`: the inhibition result in assay [2] was “inactive”. The inhibition stood at 16% in assay [3] and 13% in assay [4].
Regarding `O=C(/C=C/c1ccc(OC2CCCOC2)cc1)/C=C/c1ccc(OC2CCCOC2)cc1` (stereo unspecified), in assay [5], inhibition was half-maximal at 1300 nM (IC50). Besides, the inhibition stood at 29% in assay [3] and 22% in assay [4].
Turning to `COc1cc(/C=C2\CC/C(=C\c3cc(OC)c(OC)c(OC)c3)C2=O)cc(OC)c1OC`, the inhibition in assay [2] came to 11%. The inhibition entry in assay [3] and in assay [4] was “inactive” each time.
In the case of `O=C(/C=C/c1ccc(F)cc1)/C=C/c1ccc(F)cc1`, the figures for the IC50 in assay [5] and in assay [6] were 100 nM and 3300 nM, respectively. The molecule also gave an inhibition in assay [4] of 39%.
For `O=C(/C=C/c1cccc(Br)c1)/C=C/c1cccc(Br)c1`, the inhibition in [2] was 20%. Further, the IC50 came to 8500 nM in assay [6] and 2700 nM in assay [1].
Regarding `COc1cc(/C=C2\CCC/C(=C\c3cc(OC)c(OC)c(OC)c3)C2=O)cc(OC)c1OC`, the results for the concentration for half-maximal inhibition (IC50) in assay [5], in [6] and in [1] were above 100000 nM, 1800 nM and 100 nM, respectively.
Consider `COc1cc(/C=C/C(=O)/C=C/c2ccc(OC3CCCOC3)c(OC)c2)ccc1OC1CCCOC1` (stereo unspecified), for which the inhibition result in assay [2] is “inactive”. Besides, the inhibition was 35% in assay [3] and 20% in assay [4].
In assay [7], `C[C@]12CC[C@H](OCCc3ccccc3)CC1CC[C@@H]1[C@@H]2CC[C@]2(C)C(=O)CC[C@@H]12` (stereo partly specified) displayed an IC50 of 57 nM.
As to `CN(C)c1ccc(/C=C2\CCC/C(=C\c3ccc(N(C)C)cc3)C2=O)cc1`, the inhibition in assay [2] was determined as 12%; in [3], 10%; in assay [4], 17%.
On to `O=C1/C(=C/c2cccc(Br)c2)CCC/C1=C\c1cccc(Br)c1`, for which the figures for the inhibition in assay [2], in assay [3] and in assay [4] were 25%, 40% and 15%, respectively.
Regarding `O=C1/C(=C/c2ccc(O)cc2)CC/C1=C\c1ccc(O)cc1`, the inhibition in assay [2] was 18%; in assay [3], 15%; in assay [4], 28%.
For `O=C1/C(=C/c2ccc(F)cc2)CC/C1=C\c1ccc(F)cc1`, the inhibition is 14% in assay [2], 15% in [3] and 11% in [4].
Taken in the same sequence, the figures for `O=C1/C(=C/c2ccc(F)cc2)CCC/C1=C\c1ccc(F)cc1` were “inactive”, “inactive” and “inactive”.
With `COc1cc(/C=C2\CC/C(=C\c3ccc(OCCCN(C)C)c(OC)c3)C2=O)ccc1OCCCN(C)C`, the inhibition stood at 38% in assay [2], 32% in [3] and 28% in assay [4].
`COc1cc(/C=C2\CC/C(=C\c3ccc(OC4CCCOC4)c(OC)c3)C2=O)ccc1OC1CCCOC1` (stereo unspecified): the inhibition result in assay [2], in [3] and in assay [4] was “inactive” each time.
For `COc1cc(/C=C/C(=O)CC(=O)/C=C/c2ccc(O)c(OC)c2)ccc1O` [CURCUMIN], the inhibition at 10 µM in [8] worked out at 64%. Further, the values for the IC50 in [5], in assay [6] and in [1] were 9000 nM, 2300 nM and 67300 nM, respectively. Also, the inhibition entry in assay [9] and in assay [10] was “Active” each time.
`O=C(/C=C/c1ccc(O)cc1)/C=C/c1ccc(O)cc1`: the inhibition in assay [2] is 30%; in [3] it was 33%; in [4], 46%.
Taken in the same sequence, the figures for `CN(C)c1ccc(/C=C2\CC/C(=C\c3ccc(N(C)C)cc3)C2=O)cc1` were “inactive”, “inactive” and “inactive”.
With `COc1cc(/C=C2\CCC/C(=C\c3ccc(OC4CCCOC4)c(OC)c3)C2=O)ccc1OC1CCCOC1` (stereo unspecified), the inhibition in assay [2] was 26%; in [3] it was 27%. Moreover, in assay [4], the inhibition result was “inactive”.
As to `O=C1/C(=C/c2ccc(OC3CCCOC3)cc2)CC/C1=C\c1ccc(OC2CCCOC2)cc1` (stereo unspecified), the inhibition result in assay [2] and in [4] was “inactive” throughout. Besides, in assay [3], the inhibition worked out at 13%.
Regarding `COc1cc(/C=C/C(=O)/C=C/c2cc(OC)c(OC)c(OC)c2)cc(OC)c1OC`, the inhibition result in assay [2], in [3] and in assay [4] was “inactive” each time.
On to `O=C1/C(=C/c2ccc(OC3CCCOC3)cc2)CCC/C1=C\c1ccc(OC2CCCOC2)cc1` (stereo unspecified), for which the inhibition in assay [2] is 16%; in assay [3], 21%. Moreover, the inhibition result in assay [4] is “inactive”.
As for `O=C1/C(=C/c2cccc(C(F)(F)F)c2F)CC/C1=C\c1cccc(C(F)(F)F)c1F`, the inhibition entry in assay [2] and in [4] was “inactive” in each case. The inhibition in assay [3] amounted to 23%.
Consider `O=C1/C(=C/c2cccc(Br)c2)CC/C1=C\c1cccc(Br)c1`, for which the inhibition in assay [2] stood at 30%; in assay [4] it was 14%. Moreover, the IC50 in [6] came out at 700 nM.
